Experimental data published in patent US9635859B2, “Pesticidal compositions and processes related thereto” (Dow AgroSciences LLC, priority 2012, dated 2017).

Tested on: Beet Armyworm (Spodoptera exigua)
Assay: Bioassays on BAW, 128-well diet tray assay
Type: in vivo
Settings: percent mortality, second instar larvae, 50 μg/cm^2 on artificial diet, five to seven days, 25° C.; Table 3
Experimental: Certain molecules disclosed in this document were tested against BAW and CEW and CL using procedures described in the following examples. In the reporting of the results, the “BAW & CEW & CL Rating Table” was used (See Table Section).
Bioassays on BAW (Spodoptera exigua)
Bioassays on BAW were conducted using a 128-well diet tray assay. one to five second instar BAW larvae were placed in each well (3 mL) of the diet tray that had been previously filled with 1 mL of artificial diet to which 50 μg/cm^2 of the test compound (dissolved in 50 μL of 90:10 acetone-water mixture) had been applied (to each of eight wells) and then allowed to dry. Trays were covered with a clear self-adhesive cover, and held at 25° C., 14:10 light-dark for five to seven days. Percent mortality was recorded for the larvae in each well; activity in the eight wells was then averaged. The results are indicated in the table entitled “Table 3: Assay Results” (See Table Section).

SMILES	BAW Rating
O=C(NCc1ccc(/C=C/C(c2cc(Cl)cc(Cl)c2)C(F)(F)F)cc1C(F)(F)F)C1CC1 (centres unmarked) [CC21]	A (50-100)
O=C(NCc1ccc(/C=C/C(c2ccc(Cl)c(Cl)c2)C(F)(F)F)cc1Cl)C1CC1 (centres unmarked) [CC17]	A (50-100)
Cc1cc(/C=C/C(c2cc(Cl)cc(Cl)c2)C(F)(F)F)ccc1C(=O)NCc1ncccn1 (centres unmarked) [AC18]	A (50-100)
Fc1cc(/C=C/C(c2cc(Cl)cc(Cl)c2)C(F)(F)F)ccc1-n1cncn1 (centres unmarked) [DC48]	A (50-100)
O=C(CC(F)(F)F)NNc1ccc(/C=C/C(c2cc(Cl)c(Cl)c(Cl)c2)C(F)(F)F)cc1 (centres unmarked) [CC51]	A (50-100)
O=C(NC1CCN(C2COC2)CC1)c1ccc(/C=C/C(c2cc(Cl)c(Cl)c(Cl)c2)C(F)(F)F)cc1Br (centres unmarked) [AC108, (E)-2-Bromo-N-(1-(oxetan-3-yl)piperidin-4-yl)-4-(4,4,4-trifluoro-3-(3,4,5-trichlorophenyl)but-1-en-1-yl)benzamide]	B (More than 0-Less than 50)
O=C(NCc1ccc(Cl)nc1)c1ccc(/C=C/C(c2cc(Cl)c(Cl)c(Cl)c2)C(F)(F)F)cc1Br (centres unmarked) [AC31]	A (50-100)
O=C(Cn1ncc2cc(/C=C/C(c3cc(Cl)c(F)c(Cl)c3)C(F)(F)F)ccc2c1=O)NCC(F)(F)F (centres unmarked) [BC14, (E)-2-(6-(3-(3,5-Dichloro-4-fluorophenyl)-4,4,4-trifluorobut-1-en-1-yl)-1-oxophthalazin-2(1H)-yl)-N-(2,2,2-trifluoroethyl)acetamide]	A (50-100)
N#Cc1cc(/C=C/C(c2cc(Cl)cc(C(F)(F)F)c2)C(F)(F)F)ccc1-n1cncn1 (centres unmarked) [DC33]	A (50-100)
N#Cc1cc(/C=C/C(c2cc(Cl)c(Cl)c(Cl)c2)C(F)(F)F)ccc1-n1cnc(N)n1 (centres unmarked) [DC41, (E)-2-(3-Amino-1H-1,2,4-triazol-1-yl)-5-(4,4,4-trifluoro-3-(3,4,5-trichlorophenyl)but-1-en-1-yl)benzonitrile]	A (50-100)
O=C(NC1CSC1)c1ccc(/C=C/C(c2cc(Cl)c(Cl)c(Cl)c2)C(F)(F)F)cc1Cl (centres unmarked) [AC29]	A (50-100)
Cc1cc(/C=C/C(c2cc(Cl)cc(Cl)c2)C(F)(F)F)ccc1C(=O)NN(C)c1ccccc1F (centres unmarked) [AC45]	A (50-100)
Cc1cc(/C=C/C(c2cc(Cl)cc(Cl)c2)C(F)(F)F)ccc1C(=O)NCc1nc2ccccc2s1 (centres unmarked) [AC42]	A (50-100)
O=C(NC1CSC1)c1ccc(/C=C/C(c2cc(Cl)c(F)c(Cl)c2)C(F)(F)F)cc1F (centres unmarked) [AC67]	A (50-100)
CN1CCC(NC(=O)c2ccc(/C=C/C(c3cc(Cl)c(Cl)c(Cl)c3)C(F)(F)F)cc2Br)CC1 (centres unmarked) [AC106, (E)-2-Bromo-N-(1-methylpiperidin-4-yl)-4-(4,4,4-trifluoro-3-(3,4,5-trichlorophenyl)but-1-en-1-yl)benzamide]	A (50-100)
O=C(CNC(=O)c1ccc(/C=C/C(c2ccc(F)c(Cl)c2)C(F)(F)F)cc1Br)NCC(F)(F)F (centres unmarked) [AC99]	A (50-100)
Cc1cc(/C=C/C(c2cc(Cl)cc(Cl)c2)C(F)(F)F)ccc1-n1cncn1 (centres unmarked) [DC62]	A (50-100)
FC(F)(F)C(/C=C/c1ccc(-n2cncn2)cc1)c1ccc(Cl)cc1 (centres unmarked) [DC4]	A (50-100)
Cc1cc(/C=C/C(c2cc(Cl)cc(Cl)c2)C(F)(F)F)ccc1C(=O)NCc1ccoc1 (centres unmarked) [AC20]	A (50-100)
Cc1cc(/C=C/C(c2cc(Cl)c(Cl)c(Cl)c2)C(F)(F)F)ccc1C(=O)NCC(=O)NCC(F)(F)F (centres unmarked) [AC78]	A (50-100)
C=CCNC(=S)NCc1ccc(/C=C/C(c2cc(Cl)c(Cl)c(Cl)c2)C(F)(F)F)cc1Cl (centres unmarked) [CC38]	A (50-100)
O=C(CC(F)(F)F)NCc1ccc(/C=C/C(c2cc(Cl)cc(Cl)c2)C(F)(F)F)cc1 (centres unmarked) [CC3]	A (50-100)
O=C(NCc1ccc(Cl)nc1)c1ccc(/C=C/C(c2cc(Cl)c(Cl)c(Cl)c2)C(F)(F)F)cc1C(F)(F)F (centres unmarked) [AC36]	A (50-100)
Cc1cc(/C=C/C(c2cc(Cl)cc(Cl)c2)C(F)(F)F)ccc1C(=O)NCc1nnc(C2CC2)o1 (centres unmarked) [AC89, (E)-N-((5-Cyclopropyl-1,3,4-oxadiazol-2-yl)methyl)-4-(3-(3,5-dichlorophenyl)-4,4,4-trifluorobut-1-en-1-yl)-2-methylbenzamide]	A (50-100)
Cc1cc(/C=C/C(c2cc(Cl)cc(Cl)c2)C(F)(F)F)ccc1C(=O)NCc1ccccc1F (centres unmarked) [AC9]	A (50-100)
O=C(CC(F)(F)F)NCc1ccc(/C=C\C(c2cc(Cl)c(Cl)c(Cl)c2)C(F)(F)F)cc1 (centres unmarked) [CC54, (Z)-3,3,3-Trifluoro-N-(4-(4,4,4-trifluoro-3-(3,4,5-trichlorophenyl)but-1-en-1-yl)benzyl)propanamide]	A (50-100)
Fc1cc(F)cc(C(/C=C/c2ccc(-n3cncn3)cc2)C(F)(F)F)c1 (centres unmarked) [DC8]	A (50-100)

SMILES	BAW Rating
O=C(NC1CCN(C(=O)CC(F)(F)F)CC1)c1ccc(/C=C/C(c2cc(Cl)c(Cl)c(Cl)c2)C(F)(F)F)cc1Br (centres unmarked) [AC104, (E)-2-Bromo-4-(4,4,4-trifluoro-3-(3,4,5-trichlorophenyl)but-1-en-1-yl)-N-(1-(3,3,3-trifluoropropanoyl)piperidin-4-yl)benzamide]	A (50-100)
CC(=O)N1CCC(NC(=O)c2ccc(/C=C/C(c3cc(Cl)c(Cl)c(Cl)c3)C(F)(F)F)cc2Br)CC1 (centres unmarked) [AC103, (E)-N-(1-Acetylpiperidin-4-yl)-2-bromo-4-(4,4,4-trifluoro-3-(3,4,5-trichlorophenyl)but-1-en-1-yl)benzamide]	A (50-100)
N#Cc1cc(/C=C/C(c2cc(Cl)cc(Cl)c2)C(F)(F)F)ccc1-n1cnc(N)n1 (centres unmarked) [DC38]	A (50-100)
Cc1cc(/C=C/C(c2cc(Cl)cc(Cl)c2)C(F)(F)F)ccc1C(=O)NC1CSC1 (centres unmarked) [AC10]	A (50-100)
Cc1cc(/C=C/C(c2cc(Cl)cc(Cl)c2)C(F)(F)F)ccc1C(=O)NCc1ccc(Cl)cc1 (centres unmarked) [AC48]	A (50-100)
N#Cc1cc(/C=C/C(c2cc(Cl)c(F)c(Cl)c2)C(F)(F)F)ccc1-n1cncn1 (centres unmarked) [DC35]	A (50-100)
O=C(NC1CSC1)c1ccc(/C=C/C(c2cc(Cl)c(Cl)c(Cl)c2)C(F)(F)F)cc1Br (centres unmarked) [AC32]	A (50-100)
FC(F)(F)CNC(=S)CNC(=S)c1ccc(/C=C/C(c2cc(Cl)c(Cl)c(Cl)c2)C(F)(F)F)cc1Br (centres unmarked) [AC90, (E)-2-Bromo-N-(2-thioxo-2-((2,2,2-trifluoroethyl)amino)ethyl)-4-(4,4,4-trifluoro-3-(3,4,5-trichlorophenyl)but-1-en-1-yl)benzothioamide]	A (50-100)
O=C(CNC(=O)c1ccc(/C=C/C(c2cc(Cl)c(Cl)c(Cl)c2)C(F)(F)F)cc1Br)NCC(F)(F)F (centres unmarked) [AC66]	A (50-100)
Cc1cc(/C=C/C(c2cc(Cl)cc(Cl)c2)C(F)(F)F)ccc1C(=S)NCc1ccc(Cl)nc1 (centres unmarked) [AC115, (E)-N-((6-Chloropyridin-3-yl)methyl)-4-(3-(3,5-dichlorophenyl)-4,4,4-trifluorobut-1-en-1-yl)-2-methylbenzothioamide]	A (50-100)
CC(=O)Nc1ncn(-c2ccc(/C=C/C(c3cc(Cl)cc(Cl)c3)C(F)(F)F)cc2C#N)n1 (centres unmarked) [DC39]	A (50-100)
O=C(NC1CS(=O)(=O)C1)c1ccc(/C=C/C(c2cc(Cl)c(Cl)c(Cl)c2)C(F)(F)F)cc1Br (centres unmarked) [AC33]	A (50-100)
O=C(CC(F)(F)F)NCc1ncc(/C=C/C(c2cc(Cl)c(Cl)c(Cl)c2)C(F)(F)F)cc1Cl (centres unmarked) [CC44, (E)-N-((3-Chloro-5-(4,4,4-trifluoro-3-(3,4,5-trichlorophenyl)-but-1-en-1-yl)pyridin-2-yl)methyl)-3,3,3-trifluoropropanamide]	A (50-100)
CN(C)C(=O)NCc1ccc(/C=C/C(c2cc(Cl)c(Cl)c(Cl)c2)C(F)(F)F)cc1Cl (centres unmarked) [CC36, (E)-3-(2-Chloro-4-(4,4,4-trifluoro-3-(3,4,5-trichlorophenyl)but-1-en-1-yl)benzyl)-1,1-dimethylurea]	A (50-100)
O=C(NCc1ccc(/C=C/C(c2cc(Cl)c(Cl)c(Cl)c2)C(F)(F)F)cc1Cl)C1CC1 (centres unmarked) [CC11]	A (50-100)
C=CCNC(=O)CNC(=O)c1ccc(/C=C/C(c2cc(Cl)c(Cl)c(Cl)c2)C(F)(F)F)cc1Br (centres unmarked) [AC111]	A (50-100)
FC(F)(F)C(/C=C/c1ccc(-n2cncn2)cc1)c1ccccc1 (centres unmarked) [DC3]	B (More than 0-Less than 50)
O=C(CC(F)(F)F)NCc1ccc(/C=C/C(c2cc(Cl)c(Cl)c(Cl)c2)C(F)(F)F)cc1Br (centres unmarked) [CC25]	A (50-100)
Cc1cc(/C=C/C(c2cc(Cl)cc(Cl)c2)C(F)(F)F)ccc1C(=O)NCc1ccccn1 (centres unmarked) [AC12]	A (50-100)
CCc1cc(/C=C/C(c2cc(Cl)c(F)c(Cl)c2)C(F)(F)F)ccc1C(=O)NC1CS(=O)(=O)C1 (centres unmarked) [AC86]	A (50-100)
O=C(NCc1ccc(/C=C/C(c2cc(Cl)cc(Cl)c2)C(F)(F)F)cc1Cl)C1CC1 (centres unmarked) [CC8]	A (50-100)
Cc1cc(/C=C/C(c2ccc(Cl)c(Cl)c2)C(F)(F)F)ccc1C(=O)NCc1ccc(Cl)nc1 (centres unmarked) [AC37]	A (50-100)
Cc1cc(/C=C/C(c2cc(Cl)c(Cl)c(Cl)c2)C(F)(F)F)ccc1C(=O)NCc1cnc(Cl)s1 (centres unmarked) [AC26]	A (50-100)
O=C(NCc1ccc(/C=C/C(c2cc(Cl)cc(Cl)c2)C(F)(F)F)cc1)C1CC1 (centres unmarked) [CC2]	A (50-100)
O=C(NCc1ccc(/C=C/C(c2cc(Cl)c(Cl)c(Cl)c2)C(F)(F)F)cc1F)C1CC1 (centres unmarked) [CC28]	A (50-100)
O=C(NNc1ccc(/C=C/C(c2cc(Cl)c(Cl)c(Cl)c2)C(F)(F)F)cc1)C1CC1 (centres unmarked) [CC50, (E)-N′-(4-(4,4,4-Trifluoro-3-(3,4,5-trichlorophenyl)but-1-en-1-yl)phenyl)cyclopropanecarbohydrazide]	A (50-100)
